Values quoted from earlier work as cited in article PMC4492579, “Potent and Selective Triazole-Based Inhibitors of the Hypoxia-Inducible Factor Prolyl-Hydroxylases with Activity in the Murine Brain” (PLoS ONE, 2015).
pIC50: −log10 of the molar value.

What was measured:
Set-up in all cases: method as in PMID 26682036
Details in all cases: cited from earlier work
JMJD2A (KDM4A) = molecular target: T1, JMJD2A (KDM4A) (Homo sapiens, UniProt O75164)
T1 sequence (O75164 1-1064): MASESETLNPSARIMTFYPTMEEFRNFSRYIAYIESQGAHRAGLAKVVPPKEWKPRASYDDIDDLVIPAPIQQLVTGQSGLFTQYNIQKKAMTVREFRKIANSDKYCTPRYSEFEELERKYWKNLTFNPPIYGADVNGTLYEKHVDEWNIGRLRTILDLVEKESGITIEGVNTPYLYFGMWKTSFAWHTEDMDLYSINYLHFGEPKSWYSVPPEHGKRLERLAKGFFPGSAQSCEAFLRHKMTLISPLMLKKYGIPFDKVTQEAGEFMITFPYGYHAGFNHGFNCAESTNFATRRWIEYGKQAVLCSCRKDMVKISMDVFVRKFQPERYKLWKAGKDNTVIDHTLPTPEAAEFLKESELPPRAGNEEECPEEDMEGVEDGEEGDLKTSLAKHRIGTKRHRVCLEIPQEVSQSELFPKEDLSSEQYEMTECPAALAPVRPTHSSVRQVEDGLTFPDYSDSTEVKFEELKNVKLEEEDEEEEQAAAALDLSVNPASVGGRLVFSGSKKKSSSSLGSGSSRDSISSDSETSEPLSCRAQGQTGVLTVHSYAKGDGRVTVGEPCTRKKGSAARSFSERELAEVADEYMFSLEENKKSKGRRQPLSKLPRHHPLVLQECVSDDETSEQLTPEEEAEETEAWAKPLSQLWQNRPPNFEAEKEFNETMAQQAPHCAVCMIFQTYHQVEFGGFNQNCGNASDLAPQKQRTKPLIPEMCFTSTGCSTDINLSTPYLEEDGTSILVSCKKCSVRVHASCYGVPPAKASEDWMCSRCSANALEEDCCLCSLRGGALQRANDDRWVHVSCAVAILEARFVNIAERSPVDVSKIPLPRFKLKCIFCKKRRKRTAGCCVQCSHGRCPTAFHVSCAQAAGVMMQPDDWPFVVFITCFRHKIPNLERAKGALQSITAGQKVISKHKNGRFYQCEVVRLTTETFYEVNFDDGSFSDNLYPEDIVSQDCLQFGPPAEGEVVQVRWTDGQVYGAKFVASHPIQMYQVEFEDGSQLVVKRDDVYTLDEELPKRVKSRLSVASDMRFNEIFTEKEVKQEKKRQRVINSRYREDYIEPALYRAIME

JMJD2C (KDM4C) = molecular target: T2, JMJD2C (KDM4C) (Homo sapiens, UniProt Q9H3R0)
T2 sequence (Q9H3R0 1-1056): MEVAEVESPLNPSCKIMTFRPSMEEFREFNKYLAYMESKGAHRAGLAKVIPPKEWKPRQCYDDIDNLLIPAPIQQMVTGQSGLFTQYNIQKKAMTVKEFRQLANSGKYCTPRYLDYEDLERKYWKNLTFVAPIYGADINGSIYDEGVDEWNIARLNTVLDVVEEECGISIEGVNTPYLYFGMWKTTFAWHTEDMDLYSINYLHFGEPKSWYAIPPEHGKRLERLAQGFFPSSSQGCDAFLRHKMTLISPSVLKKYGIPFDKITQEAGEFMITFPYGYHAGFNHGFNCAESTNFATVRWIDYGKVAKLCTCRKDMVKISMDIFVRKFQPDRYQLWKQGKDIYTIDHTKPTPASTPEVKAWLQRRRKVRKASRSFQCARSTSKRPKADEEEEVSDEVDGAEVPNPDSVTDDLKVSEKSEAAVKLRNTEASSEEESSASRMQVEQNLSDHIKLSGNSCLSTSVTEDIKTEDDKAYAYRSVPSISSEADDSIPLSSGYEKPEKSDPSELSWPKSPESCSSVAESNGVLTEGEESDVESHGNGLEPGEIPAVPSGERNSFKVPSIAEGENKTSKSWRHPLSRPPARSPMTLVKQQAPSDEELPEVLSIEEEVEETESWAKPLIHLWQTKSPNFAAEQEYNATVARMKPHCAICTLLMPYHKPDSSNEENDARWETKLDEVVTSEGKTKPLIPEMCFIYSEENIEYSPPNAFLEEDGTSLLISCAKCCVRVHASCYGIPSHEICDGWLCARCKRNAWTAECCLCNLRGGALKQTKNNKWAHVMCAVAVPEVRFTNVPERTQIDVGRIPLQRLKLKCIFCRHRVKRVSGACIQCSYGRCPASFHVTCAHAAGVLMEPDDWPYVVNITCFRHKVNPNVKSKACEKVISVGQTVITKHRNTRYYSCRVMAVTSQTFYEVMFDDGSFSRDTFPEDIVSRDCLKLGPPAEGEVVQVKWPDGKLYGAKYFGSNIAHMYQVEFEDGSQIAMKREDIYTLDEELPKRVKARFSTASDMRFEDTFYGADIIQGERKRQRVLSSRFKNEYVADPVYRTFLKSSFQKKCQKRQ

JMJD2E (KDM4E) = molecular target: T3, JMJD2E (KDM4E) (Homo sapiens, UniProt B2RXH2)
T3 sequence (B2RXH2 1-506): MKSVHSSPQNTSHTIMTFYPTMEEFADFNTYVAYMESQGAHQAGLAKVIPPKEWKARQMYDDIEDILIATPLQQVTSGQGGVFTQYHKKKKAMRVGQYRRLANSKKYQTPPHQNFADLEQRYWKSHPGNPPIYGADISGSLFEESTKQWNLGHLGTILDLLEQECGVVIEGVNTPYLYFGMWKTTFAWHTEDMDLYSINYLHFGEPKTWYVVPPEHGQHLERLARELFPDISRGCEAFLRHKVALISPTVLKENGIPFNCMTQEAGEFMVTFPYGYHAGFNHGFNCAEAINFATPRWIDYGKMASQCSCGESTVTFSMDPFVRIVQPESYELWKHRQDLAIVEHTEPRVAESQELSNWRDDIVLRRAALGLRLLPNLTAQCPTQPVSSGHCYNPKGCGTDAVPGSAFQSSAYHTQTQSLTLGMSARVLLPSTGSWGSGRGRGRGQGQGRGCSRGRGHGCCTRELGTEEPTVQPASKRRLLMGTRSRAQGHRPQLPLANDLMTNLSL

O=C(O)CNC(=O)c1c(O)c2ccccc2n(Cc2ccccc2)c1=O [IOX2]
pIC50 (JMJD2A (KDM4A)): 4.00 | pIC50 (JMJD2C (KDM4C)): 4.00 | pIC50 (JMJD2E (KDM4E)): < 4.00
